Test results: PMC9030827, “In Vitro Effects of Mitochondria-Targeted Antioxidants in a Small-Cell Carcinoma of the Ovary of Hypercalcemic Type and in Type 1 and Type 2 Endometrial Cancer” (Biomedicines, 2022)
Read-outs that look alike come from different tables or passages of the source.

Columns and labels:
[1] = tested on: Ishikawa cells; experiment: Nuclear changes by Höechst staining; assay type: cell-based, human; conditions: 72 h, 5 μM Mito6_TPP, 10 μM Mito6_isoq.; for Nucleus shape and chromatin condensation (Höechst staining): 20 μM Mito6_picol.
Method: (§1) Morphological changes in all cell lines were evaluated by phase-contrast microscopy (Eclipse TS100 Inverted Microscope, Nikon, Tokyo, Japan) and Giemsa staining. […] The cells were plated in 24-well plates with coverslips using the densities of 1 × 10^5 cells/well in Ishikawa and Hec50co and 2.5 × 10^5 cells/well in COV434 and HFF-1. After adherence, the cells were treated with Mito6_TPP (5 μM), Mito6_picol. (20 μM), or Mito6_isoq. (10 μM) and incubated at 37 °C with 5% CO2 for 72 h. For Giemsa staining, the cells were fixated with paraformaldehyde 4% in Phosphate Buffered Saline (PBS) for 15 min, stained with Giemsa solution for 30 min, mounted with DPX, and observed through bright field microscopy. For Höechst staining, the cells were incubated with 0.5 μg/mL Höechst 33342 in PBS for 20 min in the dark, mounted in Fluoroshield, and observed under a fluorescence microscope equipped with an excitation filter with maximum transmission at 360/400 nm. In both stainings, the cells were observed using the microscope Eclipse CI (Nikon, Japan) and the images were processed with Nikon NIS Elements Image Software (Nikon, Japan).

[2] = tested on: Hec50co cells; experiment: Nuclear changes by Höechst staining; assay type: cell-based, human; conditions: 72 h, 5 μM Mito6_TPP, 10 μM Mito6_isoq.; for Nucleus shape and chromatin condensation (Höechst staining): 20 μM Mito6_picol.
Method: as §1

[3] = tested on: COV434 cells; experiment: Nuclear changes by Höechst staining; assay type: cell-based, human; conditions: COV434, 72 h, 5 μM Mito6_TPP, 10 μM Mito6_isoq.; for Nucleus shape and chromatin condensation (Höechst staining): 20 μM Mito6_picol.
Method: as §1

[4] = tested on: HFF-1 cells; experiment: MTT cell viability assay; assay type: cell-based; conditions: Homo sapiens
Method: (§2) Experiments were performed using the following cell lines: Ishikawa, Hec50co, COV434, and HFF-1. The Ishikawa cell line (RRID: CVCL_2529) was established from an endometrial adenocarcinoma. The Hec50co cell line (RRID: CVCL_4Y59) consists of poorly differentiated endometrial tumor cells isolated from a patient with advanced disease. Both the Ishikawa and Hec50co cell lines were kindly provided by Dr. Kim K. Leslie (The University of New Mexico Health Sciences Center, Albuquerque, NM, USA). COV434 (RRID: CVCL_2010) were initially isolated from a patient diagnosed with a granulosa cell tumor but were recently classified as cells from a small-cell carcinoma of the ovary, hypercalcemic type.The COV434 cells were purchased from the European Collection of Authenticated Cell Cultures (ECACC) (#07071909). HFF-1 (RRID: CVCL_3285) is an immortalized human foreskin fibroblasts cell line, obtained from the American Type Culture Collection (ATCC), which was used as control, as they are non-tumorous cells. The Ishikawa and Hec50co cells were maintained in Dulbecco’s Modified Eagle Medium/F12 (DMEM/F12) supplemented with 5% Foetal Bovine Serum (FBS). COV434 cells were maintained in DMEM/F12 supplemented with 10% FBS. HFF-1 were maintained in Roswell Park Memorial Institute 1640 (RPMI 1640) supplemented with 10% FBS. All mediums were supplemented with 1% AB-AM and all cells were kept at 37 °C with 5% CO2. The treatment with the compounds was done in the respective cell medium supplemented with 2% FBS and 24 h after platting the cells in the culture medium with 5% FBS to allow their adherence.
(§3) The Ishikawa, Hec50co, COV434, and HFF-1 cell lines were plated at a density of 5 × 10^4 cells/well in transparent 96-well plates. After 24 h, the cells were treated with Mito6_TPP, Mito6_picol., or Mito6_isoq. (0.01–100 μM) and incubated at 37 °C with 5% CO2 for 24, 48, or 72 h. […] The conditions of the methylthiazolyldiphenyl-tetrazolium bromide (MTT) assay were adapted from the work of Banerjee et al.. Briefly, MTT was added to a final concentration of 0.5 mg/mL, and the cells were incubated for 3 h at 37 °C with 5% CO2. After the 3 h, purple MTT formazan crystals were dissolved by agitation for 15 min in a solution of DMSO/isopropanol (ratio 3:1) and quantified spectrophotometrically at 540 nm. The neutral red (NR) assay conditions were based on the work developed by Repetto et al.. Briefly, after the incubation time, cells were incubated with NR at 40 μg/mL in an FBS-free cell medium for 3 h. The cells were then incubated with a solution of 50% ethanol (96% v/v), 49% deionized water, and 1% glacial acetic acid, with shaking for 15 min. The NR extracted from the cells was measured at 540 nm. The LDH cytotoxicity assay was not performed on the HFF-1 cells due to the lack of evidence of cell death at the concentrations tested. After the incubation time, this assay was performed using a Thermo Scientific Pierce LDH Cytotoxicity Assay Kit according to the manufacturer’s instructions. For all assays, the absorbance was read using a BioTek Synergy HTX Multi-Mode Microplate Reader equipped with BioTek Gen5 Data Collection and Analysis Software (BioTek Instruments, Winooski, VT, USA).
(§4) Data were evaluated using the one- or two-way analysis of variance (ANOVA) test followed by Bonferroni’s test for multiple comparisons. The data presented was expressed as mean ± SEM (Standard Error of the Mean) of a minimum of three and a maximum of seven independent experiments performed in triplicate. Values of p < 0.05 were considered statistically significant. Half of the maximal effective concentration (EC50) values were estimated by interpolation of dose-response curves and reported as a mean with a 95% confidence interval (CI 95%). All statistical analysis was performed using GraphPad Prism Software 8.0 (GraphPad Software, Inc., San Diego, CA, USA). […]

[5] = tested on: Ishikawa cells; experiment: MTT cell viability assay; assay type: cell-based; conditions: Homo sapiens
Method: as §2, §3, §4

[6] = tested on: Hec50co cells; experiment: MTT cell viability assay; assay type: cell-based; conditions: Homo sapiens
Method: as §2, §3, §4

[7] = tested on: COV434 cells; experiment: MTT cell viability assay; assay type: cell-based; conditions: Homo sapiens
Method: as §2, §3, §4

[8] = 24 h, read-out: EC50 (decrease of viability), MTT assay
[9] = 48 h, read-out: EC50 (decrease of viability), MTT Assay
[10] = 72 h, read-out: EC50 (decrease of viability), MTT assay
[11] = COV434, 24 hours of incubation, read-out: EC50 (decrease of viability), MTT assay
[12] = COV434, 48 h of incubation, read-out: EC50 (decrease of viability), MTT Assay
[13] = COV434, 72 hours of incubation, read-out: EC50 (decrease of viability), MTT assay
[14] = HFF-1, 48 h of incubation, read-out: EC50 (decrease of viability), MTT Assay
[15] = 24 hours of incubation, read-out: EC50 (decrease of viability), MTT assay
[16] = 48 h of incubation, read-out: EC50 (decrease of viability), MTT Assay
[17] = 72 hours of incubation, read-out: EC50 (decrease of viability), MTT assay
[18] = Hec50co, 24 hours of incubation, read-out: EC50 (decrease of viability), MTT assay
[19] = Hec50co, 48 h of incubation, read-out: EC50 (decrease of viability), MTT Assay
[20] = Hec50co, 72 hours of incubation, read-out: EC50 (decrease of viability), MTT assay

| Structure (SMILES) | Nuclear fragmentation (Höechst staining) [1] | Nucleus shape and chromatin condensation (Höechst staining) [1] | Nuclear fragmentation (Höechst staining) [2] | Nucleus shape and chromatin condensation (Höechst staining) [2] | Nuclear fragmentation (Höechst staining) [3] | Nucleus shape and chromatin condensation (Höechst staining) [3] | EC50 [7, 11] | EC50 [7, 12] | EC50 [7, 13] | EC50 [4, 14] | EC50 [5, 15] | EC50 [5, 16] | EC50 [5, 17] | EC50 [6, 18] | EC50 [6, 19] | EC50 [6, 20] | also measured |
| --- | --- | --- | --- | --- | --- | --- | --- | --- | --- | --- | --- | --- | --- | --- | --- | --- | --- |
| O=C(/C=C/c1ccc(O)c(O)c1)NCCCCCCCCCC[P+](c1ccccc1)(c1ccccc1)c1ccccc1 [Mito6_TPP] | nuclear fragmentation visible | changes in the nucleus shape and the chromatin condensation | nuclear fragmentation visible | changes in the nucleus shape and the chromatin condensation | nuclear fragmentation visible | changes in the nucleus shape and the chromatin condensation | 4.64 µM | 2.37 µM | 0.577 µM | – | – | – | – | – | – | – | EC50 ([4]; HFF-1, 24 h, read-out: EC50 (decrease of viability), MTT assay): > 100 µM; EC50 ([4]; HFF-1, 48 h, read-out: EC50 (decrease of viability), MTT Assay): 44.5 µM; EC50 ([4]; HFF-1, 72 h, read-out: EC50 (decrease of viability), MTT assay): 37 µM; EC50 [5, 8]: 9.14 µM; EC50 [5, 9]: 2.45 µM; EC50 [5, 10]: 0.925 µM; EC50 [6, 8]: 7.75 µM; EC50 [6, 9]: 1.87 µM; EC50 [6, 10]: 0.847 µM |
| O=C(/C=C/c1ccc(O)c(O)c1)NCCCCCCCCCC[n+]1ccc2ccccc2c1 [Mito6_isoq.] | nuclear fragmentation visible | changes in the nucleus shape and the chromatin condensation | nuclear fragmentation visible | changes in the nucleus shape and the chromatin condensation | nuclear fragmentation visible | changes in the nucleus shape and the chromatin condensation | 29.5 µM | 7.16 µM | 3.16 µM | > 100 µM | 29.9 µM | 15.4 µM | 7.16 µM | 19 µM | 9.55 µM | 6.59 µM | – |
| Cc1cc[n+](CCCCCCCCCCNC(=O)/C=C/c2ccc(O)c(O)c2)cc1 [Mito6_picol.] | – | did not induce any morphological changes | – | did not induce any morphological changes | – | did not induce any morphological changes | 53.2 µM | 15.9 µM | 6.6 µM | > 100 µM | 42.9 µM | 23.6 µM | 10.8 µM | 27.3 µM | 13.8 µM | 17.2 µM | – |
